The source of these data is patent US20090179638A1, “ASSAY FOR IDENTIFYING INHIBITORS OF NEURONAL APOPTOTIC PATHWAYS” (AEGERA THERAPEUTICS INC., priority 2006, published 2009).

This assay deals with HSP70, HSP25, HSP90 mRNA. Description: semi-quantitative rtPCR of HSP mRNA in PC12 cells. The format is cell-based, rat. As to conditions: 18 hours. The method, then:
FIGS. 4A-4C are photographs of Western blots which illustrate that compound 1 treatment of PC12 cells induces expression of HSP70. A: PC12 cells were infected with 5 MOI of AdNRG (NRG) or AdLacZ (LacZ) as indicated. Cells were left untreated (0) or treated with 40 μM compound 1 at time of infection (30), one hour before lysis (1), or at both times (30+1). Cells were lysed thirty hours after infection, normalized for protein content, and analyzed for levels of phospho-Ser^63 c-Jun and total c-Jun, total JNK, IkBα, and NRAGE by immunoblotting. Lysates from untreated cells are indicated by ‘−’. B: PC12 cells were treated with the indicated concentrations of compound 1 for 18 hours and then lysed, normalized for protein content, and analyzed for levels of HSP70 by immunoblotting. Lysates from untreated cells are indicated by ‘−’. C: RNA isolated from PC12^rtTA cells treated with increasing concentrations of compound 1 for 18 hours was analyzed by rtPCR using primers specific to HSP70, HSP25, HSP90 or actin, as indicated. […] Thirty hours after infection, cells were lysed, normalized for protein content, and analyzed for levels of c-Jun phosphorylation, HSP70, HSP25, HSP40, NRAGE, p75NTR, JNK-1 and IkBα, as indicated.
To address this, SCG neurons were treated with compound 1 for 18 hours then lysed and assessed for HSP70 levels by immunoblot. […]

Molecules are shown by their SMILES.

`NS(=O)(=O)c1nn2cc(-c3ccccc3)nc2s1` [Compound 1]: the “HSP25 and HSP70 mRNA levels” value was “increased levels”; the “HSP90 or actin mRNA levels” value is listed as “no effect”.
